Test results as given in patent US20150140015A1, “METHODS AND PHARMACEUTICAL COMPOSITIONS FOR THE TREATMENT OF PANCREATIC CANCER” (INSERM (Institut National de la Sante et de la Recherche …, priority 2013, published 2015).

Legend:
Assay type in all cases: cell-based, human
[1] = tested on: HPAF-II cells expressing recombinant OX1R; assay: Quantification of apoptotic cells by annexin V-PE labeling in recombinant OX1R/HPAF-II cells; conditions: 1 μM orexin-A, 48 hr; recombinant HPAF-II expressing OX1R
Experimental: (§1) FIGS. 5A and B. Effect of orexin-A on apoptosis in OX1R expressing recombinant OX1R/HPAF-II cells. A, Parental HPAF-II and recombinant OX1R/HPAF-II cells were challenged with (black bars) or without (white bars) 1 μM orexin-A for 48 hr in the absence or presence of the SHP-2 protein tyrosine phosphatase inhibitor, NSC-87877 (50 μM). Apoptosis was measured by determination of annexin V-PE binding. Results are expressed as the percentage of apoptotic cells, and are the means±SE of three separate experiments. ***p<0.001; ns, non-significant; B, paraformaldehyde-fixed HPAF-II cells and recombinant OX1R/HPAF-II cells were challenged with or without (Basal) 1 μM orexin-A for 48 hr. Indirect immunostaining of activated caspase-3 in parental HPAF-II cells (left panels) and recombinant OX1R/HPAF-II cells (right panels) in the presence (bottom panels) or tabsence (top panels) of orexin-A is illustrated in B. […]
AsPC-1, SW 1990, HPAF-II and HPAF-II/hOX1R cells (seeded at 5×10^4 cells/well) were grown in 24-well plates for 24 hr under the culture conditions described above. […] Results are expressed as the percentage of apoptotic phycoerythrin-labelled Annexin V (Annexin V-PE) positive cells and are the means of 3 independent analyses.

AsPC-1 cells = assay: Quantification of apoptotic cells by annexin V-PE labeling in AsPC-1 cells; conditions: 1 μM orexin-A, 48 hr
Experimental: FIG. 4A-C. Effect of orexin-A on apoptosis in AsPC-1 cells. A, SHP-2 protein tyrosine phosphatase inhibitor, NSC-87877, blocks orexin-induced apoptosis. AsPC-1 cells were challenged with (black bars) or without (white bars) 1 μM orexin-A for 48 hr in the absence or presence of NSC-87877 (50 μM). Apoptosis was measured by determination of annexin V-PE binding, and results are expressed as the percentage of apoptotic cells; B and C: Indirect immunostaining of activated caspase-3 in AsPC-1 cells in the presence or absence of orexin-A. Paraformaldehyde-fixed AsPC-1 cells were challenged with (orexin-A) or without (basal) 1 μM orexin-A for 48 hr. Activated caspase-3 immunostaining is shown in B and scored in C. Results are means±SE of three separate experiments. ***p<0.001; ns, non-significant.
AsPC-1, SW 1990, HPAF-II and HPAF-II/hOX1R cells (seeded at 5×10^4 cells/well) were grown in 24-well plates for 24 hr under the culture conditions described above. The culture medium was then replaced every 24 hr with fresh medium with or without orexin-A (GL Biochemicals) at a concentration of 1 μM in the presence or absence of the SHP-2 inhibitor, NSC-87877 (50 μM) (Calbiochem, VWR International SAS, France). At the end of the treatment (48 hr), apoptotic cells were determined using the Guava Nexin™ kit (Guava Technologies, Hayward, Calif., USA), which discriminates between apoptotic and non-apoptotic cells (Rouet-Benzineb P, Rouyer-Fessard C, Jarry A, et al. Orexins Acting at Native OX1 Receptor in Colon Cancer and Neuroblastoma Cells or at Recombinant OX1 Receptor Suppress Cell Growth by Inducing Apoptosis. J Biol Chem 2004; 279:45875-86), analyzed with the Guava Personal Cell Analysis (PCA) system (Merck-Millipore, Guyancourt, France), and counted (2,000 events) (Voisin et al, 2008, as above). Results are expressed as the percentage of apoptotic phycoerythrin-labelled Annexin V (Annexin V-PE) positive cells and are the means of 3 independent analyses.

parental HPAF-II cells = assay: Activated caspase-3 immunostaining in parental HPAF-II cells; conditions: 1 μM orexin-A, 48 hr
Experimental: as §1, with “hr.” for “hr. Indirect immunostaining of activated caspase-3 in parental HPAF-II cells (left panels) and recombinant OX1R/HPAF-II cells (right panels) in the presence (bottom panels) or tabsence (top panels) of orexin-A is illustrated in B.”
After dewaxing, rehydrating tumor paraffin sections, and antigen retrieval by pretreatment with high temperature at pH 9, immunohistochemical procedures were carried out using an automated immunohistochemical stainer according to the manufacturer's guidelines (Bond-Max slide stainer, Menarini, Leica Microsystems). […] OX1R immunostaining was evaluated by two investigators (TV and AC) by calculating a score (0-300) obtained by multiplying the intensity (negative, 0; weak, 1; moderate, 2; and strong, 3) by the percentage of stained cells. The pattern of expression (cytoplasmic, membranous, and nuclear) was also recorded, and a mean score was calculated for each tumor. […]

## orexin-A: 33 amino acid hypothalamic neuropeptide, OX1R agonist, SEQ ID NO:2; peptide from GL Biochemicals
[1]
  annexin-V positive apoptotic cells: 17.8%
AsPC-1 cells
  percentage of apoptotic cells (annexin V-PE): 24.3%±1.4
Parental HPAF-II cells
  caspase-3 activation: no activation
